Data: US20100173827A1, “ROLE OF PROLINE RICH PEPTIDES IN CELLULAR COMMUNICATION MECHANISMS AND TREATMENT OF DISEASES” (priority 2008, published 2010)

Columns and labels:
[1] = system: immobilized gamma globulin (IgG-2); assay: Adsorption and desorption of ovine PRPC peptides on immobilized IgG-2 column, ELISA titer; type: binding; settings: for Titer in pool: starting material, ELISA with mono-specific anti peptide antibody; for Desorbs (pH 5.0): titer in material eluted in pH 5.0 buffer; for Not adsorbed: titer in material not adsorbed on immobilized IgG-2 column at neutral pH
Method: The ovine PRPC purified as described earlier was applied on immobilized IgG-2 column at neutral pH and eluted in pH 5.0 buffer. The starting materials not adsorbed and eluted materials were tested for the presence of selected peptides by an ELISA method, using mono-specific anti peptide antibody.
Changing the pH 7.0 of the IgG column by the elution buffer of pH 5.0 releases the peptides from the immobilized gamma globulin. Since the interaction between gamma globulin and peptide is not specific, the adsorption and desorption of the peptides from PRPC confirm theory concerning storage facility No II. Furthermore, the finding supports the hypothesis that binding the triplets to macromolecule represents the new mechanism used by host to transport triplets to new cells.

rabbits = assay: Immunization of rabbits with peptide antigens, antibody titer in sera; type: in vivo, rabbit; settings: for Post immunization titers: estimated titer of the antibodies in sera from the immunized rabbits; for Before immunization: titer of the antibodies in rabbit sera before immunization
Excerpt: The basic problem in preparation antibody for triplets and PRPC peptides is the size of antigen use for immunization purposes. Triplets by definition are made from three amino acids. Under normal condition such peptides are too small to induce the antibody production. The monospecific antibodies, however, can be made by presenting the antigen in the form of a single amino acid as an annealed antigen. The annealed antigen can be made from the same amino acid. In other approach it is possible to increase the size of antigen by repeating the same motif several times. Formation of the annealing polymer will overcome the difficulties connected with the antigen (peptide) for antibody production.
In order to make annealing it is necessary sometimes, to add to peptide empty (not active immunological) amino acids. The strategy used for production antibodies included both variants and addition of the complete Freund adjuvant. The mono-specific antibodies against various ovine PRPC antigens were prepared on rabbits. The larger animals like sheep, goat, or horse may also be utilized. Two rabbits were selected for each natural antigen.

[2] = Scavenger activity in Spin trap Electromagnetic resonance; type: biochemical; settings: for Scavenger Activity: Spin trap Electromagnetic resonance
Method: (§1) The studies leading to discovery the mechanism protecting signals was already described earlier and is repeated here in Table 11. Amino acids QT, V, and DG may serve as an example of PRP protector present in CN V. The identified peptides were synthesized by BIO-[…] Inc. Lewisville Tex. USA. Peptides were purified in to 99% of purity their amino acid sequences were confirmed. The scavengers activity ware tested in Spin trap Electromagnetic resonance and their effect on the amyloid formation was tested on adult Lewis rats exposed to induced hypoxia. […] If small structural changes in carrier peptides lead to activation their biological activity, similar changes may suppress activity or even terminate the signal. This important property is called feed back signal. Similar type of signals ought to operate within PRPC III and PRPC IV network or are coded in CN V. In Table 12 are listed peptides that may be considered as terminating signals.

amyloid formation = assay: Amyloid formation in adult Lewis rats exposed to induced hypoxia; type: in vivo; settings: grades 0 to +++++, key not given
Method: as §1

Row | Substance | Post immunization titers (rabbits) | Before immunization (rabbits) | other results
1 | AFLLYQEPVLGPV [D-1, ID NO.: 40] |  |  | Titer in pool [1]: 9300; Desorbs (pH 5.0) [1]: 6400; Not adsorbed [1]: 200
2 | AFLLYQEPVLGPV [SEQ. ID. NO.: 40] | >25,000 | 0 | 
3 | DLEMPVLPVEPFPFV (Ovis aries) [SEQ. ID. NO.: 16] | >25,000 | 0 | 
4 | DPPPPQS (Ovis aries) [SEQ. ID. NO.: 6] | 6,400 | 0 | 
5 | DQPPDVEKPDLQPFQVQS (Ovis aries) [B-9, ID NO.: 19] |  |  | Titer in pool [1]: 2075; Desorbs (pH 5.0) [1]: >25600; Not adsorbed [1]: 0
6 | DQPPDVEKPDLQPFQVQS (Ovis aries) [SEQ. ID. NO.: 19] | >25,000 | 0 | 
7 | DSQPPV (Ovis aries) [SEQ. ID. NO.: 14] | >25,000 | 0 | 
8 | EMPFPKY (Ovis aries) [SEQ. ID. NO.: 21] | >25,000 | 0 | 
9 | FPPPK (Ovis aries) [SEQ. ID. NO.: 15] | >25,000 | 0 | 
10 | HKEMPFPKYPVEPFTESQ [SEQ. ID NO.: 28] |  |  | Free radical scavenger property (in words) [2]: powerful free radicals scavengers
11 | LFFFLPVVNVLP (Ovis aries) [SEQ. ID. NO.: 17] | >25,000 | 0 | 
12 | LKPFPKLKVEVFPFP (Ovis aries) [SEQ. ID. NO.: 4] | >25,600 | 0 | 
13 | LPPNVG (Ovis aries) [SEQ. ID. NO.: 12] | >25,000 | 0 | 
14 | LQTPQPLLQVMMEPQGD (Ovis aries) [SEQ. ID. NO.: 1] | 12,800 | 0 | Titer in pool [1]: 5400; Desorbs (pH 5.0) [1]: 3200; Not adsorbed [1]: 800; Inhibit Amyloid Formation (amyloid formation): 0; Scavenger Activity [2]: 11%
15 | LSQPKVLPVPQKAVPKPDMPIQ [C-11, ID NO.: 34] |  |  | Titer in pool [1]: 15400; Desorbs (pH 5.0) [1]: >25600; Not adsorbed [1]: 400
16 | LSQPKVLPVPQKAVPKPDMPIQ [SEQ. ID NO.: 34] |  |  | Free radical scavenger property (in words) [2]: powerful free radicals scavengers
17 | LVYPFTGPIPNSLPQNILP (Ovis aries) [SEQ. ID. NO.: 20] | >25,000 | 0 | 
18 | MPQNFYKLPQM (Ovis aries) [SEQ. ID. NO.: 2] | >25,600 | 0 | 
19 | MQPPPLP (Ovis aries) [B-8, ID NO.: 18] |  |  | Titer in pool [1]: 9000; Desorbs (pH 5.0) [1]: 12800; Not adsorbed [1]: 400
20 | MQPPPLP (Ovis aries) [SEQ. ID. NO.: 18] | >25,000 | 0 | 
21 | QPLLQVMMEPQ (Ovis aries) [SEQ. ID NO.: 10] |  |  | Scavenger Activity [2]: 75%
22 | RGPTPILV |  |  | Free radical scavenger property (in words) [2]: powerful scavenger property
23 | SEEMP (Ovis aries) [SEQ. ID. NO.: 13] | >25,000 | 0 | 
24 | SEQP (Ovis aries) [SEQ. ID. NO.: 5] | >25,600 | 0 | 
25 | SPSLPQNIL [C-2, ID NO.: 25] |  |  | Titer in pool [1]: 5325; Desorbs (pH 5.0) [1]: 12800; Not adsorbed [1]: 0
26 | SPSLPQNIL [SEQ. ID NO.: 25] |  |  | Free radical scavenger property (in words) [2]: powerful free radicals scavengers
27 | VLEMKFPPPPQETVT (Ovis aries) [A-3, ID NO.: 3] |  |  | Titer in pool [1]: 1350; Desorbs (pH 5.0) [1]: 6400; Not adsorbed [1]: 400
28 | VLEMKFPPPPQETVT (Ovis aries) [SEQ. ID. NO.: 3] | 12,800 | 0 | 
29 | VYPFPGPIN [SEQ. ID NO.: 24] |  |  | Free radical scavenger property (in words) [2]: powerful free radicals scavengers
